According to US8658801B2, “Pesticides containing a bicyclic bisamide structure” (Syngenta Crop Protection, LLC, priority 2006, dated 2014):

Experiments:
[1] = test system: Diabrotica balteata (Corn Root Worm); experiment: Example B4: Diabrotica balteata, larvicide, feeding/residual contact, preventive; assay type: in vivo; conditions: 120 h, 5 days incubation, L2 larvae
Procedure: Diabrotica balteata (Corn Root Worm)
(§1) (Larvicide, Feeding/Residual Contact Activity, Preventive)
After drying, the MTP's are infested with larvae (L2)(6-10 per well). After an incubation period of 5 days, samples are checked for larval mortality, antifeedant and growth regulation. In this test, compounds listed in Table P above show good activity. In particular compounds P.1, P.2, P.5, P.6, P.10, P.11, P.12, P.13, P.15, P.16, P.17, P.18, P.19, P.24, P.25, P.27, P.28, P.29, P.30, P.31, P.33, P.34, P.35, P.37, P.38, P.39, P.42, P.43, P.44, P.45, P.46, P.47, P.48, P.49, P.50, P.52, P.53, P.65, P.67, P.68, P.69, P.70, P.71, P.72, P.75, P.78, and P.79 show an activity of over 80% at a concentration of 400 ppm.

[2] = test system: Heliothis virescens (Tobacco Budworm); experiment: Example B2: activity against Heliothis virescens, ovo-larvicide, feeding/contact, curative; assay type: in vivo; conditions: 96 h, 4 days incubation, eggs 0-24 h old
Procedure: Activity Against Heliothis virescens (Tobacco Budworm)
(Ovo-Larvicide, Feeding/Contact Activity, Curative)
Eggs (0-24 h old) are placed in 24-well microtiter plate on artificial diet and treated with test solutions by pipetting. After an incubation period of 4 days, samples are checked for egg mortality, larval mortality, and growth regulation.

[3] = test system: Myzus persicae (Green Peach Aphid); experiment: Example B6: activity against Myzus persicae, mixed population, systemic/feeding, curative (pea seedling roots); conditions: 144 h, read-out: activity
[4] = test system: Plutella xylostella (Diamond Back Moth); experiment: Example B3: Plutella xylostella, larvicide, feeding/residual contact, preventive (artificial diet MTP); assay type: in vivo; conditions: 120 h, 5 days incubation, L2 larvae
Procedure: Plutella xylostella (Diamond Back Moth)
as §1
24-well microtiter plate (MTP) with artificial diet is treated with test solutions by pipetting. After drying, the MTP's are infested with larvae (L2)(10-15 per well). After an incubation period of 5 days, samples are checked for larval mortality, antifeedant and growth regulation. In this test, compounds listed in Table P above show good activity. In particular compounds P.1, P.2, P.3, P.4, P.5, P.6, P.7, P.9, P.10, P.11, P.12, P.13, P.15, P.16, P.17, P.18, P.19, P.20, P.21, P.22, P.23, P.25, P.26, P.27, P.28, P.29, P.30, P.31, P.32, P.33, P.34, P.35, P.36, P.37, P.38, P.39, P.40, P.41, P.42, P.43, P.44, P.46, P.47, P.48, P.49, P.50, P.51, P.52, P.53, P.54, P.55, P.56, P.57, P.58, P.59, P.60, P.61, P.63, P.64, P.67, P.68, P.69 P.70, P.72, P.74, P.77, P78 and P.79 show an activity of over 80% at a concentration of 400 ppm.

[5] = test system: Myzus persicae (Green Peach Aphid); experiment: Example B5: activity against Myzus persicae, mixed population, feeding/residual contact, preventive (sunflower leaf discs); conditions: foliar, 144 h, read-out: activity
[6] = test system: Frankliniella occidentalis (Western Flower Thrips); experiment: Example B9: activity against Frankliniella occidentalis (bean leaf discs or bean plants); assay type: in vivo; conditions: foliar, 6 days (leaf discs) or 14 days (plants) after infestation
Procedure: Activity Against Frankliniella occidentalis (Western Flower Thrips)
Bean leaf discs on agar in petri dishes or bean plants in a spray chamber are treated with diluted test solutions. After drying leaf discs are cut and placed in plastic cups on the surface of an agar layer and infested with mixed population. 6 days (leaf discs) or 14 days (plants) after the infestation, samples are checked for reduction of treated population and compared to the non treated population.

[7] = test system: Spodoptera littoralis (Egyptian Cotton Leafworm); experiment: Example B1: activity against Spodoptera littoralis, larvicide, feeding/residual contact, preventive (cotton leaf discs); assay type: in vivo; conditions: foliar, 72 h, 3 days after treatment, L1 larvae
From the text: Activity Against Spodoptera littoralis (Egyptian Cotton Leafworm)
as §1
The samples are checked for mortality, repellent effect, feeding behaviour, and growth regulation 3 days after treatment. In this test, compounds listed in Table P above show good activity. In particular compounds P.1, P.2, P.3, P.4, P.5, P.6, P.7, P.9, P.10, P.11, P.12, P.13, P.15, P.16, P.17, P.18, P.19, P.20, P.21, P.22, P.23, P.24, P.25, P.26, P.27, P.28, P.29, P.30, P.31, P.32, P.33, P.34, P.35, P.36, P.37, P.38, P.39, P.40, P.41, P.42, P.43, P.44, P.45, P.46, P.47, P.48, P.49, P.50, P.51, P.52, P.53, P.54, P.55, P.56, P.57, P.58, P.59, P.60, P.61, P.63, P.64, P.67, P.68 and P.70 show an activity of over 80% at a concentration of 400 ppm.

[8] = test system: Thrips tabaci (Onion Thrips); experiment: Example B7: activity against Thrips tabaci, mixed population, feeding/residual contact, preventive; conditions: 144 h, read-out: activity
[9] = test system: Aphis craccivora (Pea Aphid); experiment: Example B11: activity against Aphis craccivora, mixed population, systemic/feeding; assay type: in vivo; conditions: 144 h, 6 days, roots in test solution (systemic)
From the text: Activity Against Aphis craccivora (Pea Aphid)
(Mixed Population, Systemic/Feeding)
6 days later, samples are checked for mortality.

Measured: pest or weed control at 400 ppm

CC(C)(CS(C)(=O)=O)NC(=O)c1c(NC(=O)c2cc(C(F)(F)F)nn2-c2ncccc2Cl)c(Cl)cc2cn[nH]c12 [P.15]
not listed: [8] | [9]
> 80%: all other assays above

CNC(=O)c1c(NC(=O)c2cc(C(F)(F)F)nn2-c2ncccc2Cl)c(Br)cc2cn[nH]c12 [P.17]
not listed: [8] | [9]
> 80%: all other assays above

CNC(=O)c1c(NC(=O)c2cc(C(F)(F)F)nn2-c2ncccc2Cl)c(C)cc2nc(C)ccc12 [P.22]
> 80%: [2] | [4] | [6] | [7]

CC(C)NC(=O)c1c(NC(=O)c2cc(C(F)(F)F)nn2-c2ncccc2Cl)c(C#N)cc2cn[nH]c12 [P.25]
not listed: [3] | [6] | [9]
> 80%: all other assays above

COc1cc(C(=O)Nc2c(Br)cc3cn[nH]c3c2C(=O)NCC2CC2)n(-c2ncccc2Cl)n1 [P.36]
> 80%: [2] | [3] | [4] | [5] | [7]

O=C(NC1(C2CC2)CC1)c1c(NC(=O)c2cc(OCC(F)(F)F)nn2-c2ncccc2Cl)c(Cl)cc2cn[nH]c12 [P.48]
not listed: [9]
> 80%: all other assays above

CCNC(=O)c1c(NC(=O)c2cc(OC)nn2-c2ncccc2Cl)c(Br)cc2cn[nH]c12 [P.50]
not listed: [6] | [9]
> 80%: all other assays above

COc1cc(C(=O)Nc2c(Br)cc3cn[nH]c3c2C(=O)NC(C)(C)CSC)n(-c2ncccc2Cl)n1 [P.51]
not listed: [1] | [6] | [9]
> 80%: all other assays above

COc1cc(C(=O)Nc2c(C#N)cc3cn[nH]c3c2C(=O)NC2(C3CC3)CC2)n(-c2ncccc2Cl)n1 [P.53]
not listed: [6] | [9]
> 80%: all other assays above

COc1cc(C(=O)Nc2c(Br)cc3cn[nH]c3c2C(=O)NC(C)(C)CS(C)(=O)=O)n(-c2ncccc2Cl)n1 [P.54]
not listed: [1]
> 80%: all other assays above

COc1cc(C(=O)Nc2c(C#N)cc3cn[nH]c3c2C(=O)NC(C)C)n(-c2ncccc2Cl)n1 [P.55]
not listed: [1] | [6] | [9]
> 80%: all other assays above

COc1cc(C(=O)Nc2c(Cl)cc3cn[nH]c3c2C(=O)NC(C)(C)CSC)n(-c2ncccc2Cl)n1 [P.57]
not listed: [1] | [6] | [9]
> 80%: all other assays above

CCNC(=O)c1c(NC(=O)c2cc(OC)nn2-c2ncccc2Cl)c(Cl)cc2cn[nH]c12 [P.58]
not listed: [1] | [6] | [9]
> 80%: all other assays above

COc1cc(C(=O)Nc2c(Cl)cc3cn[nH]c3c2C(=O)NC2(C)CSC2)n(-c2ncccc2Cl)n1 [P.59, 5-chloro-6-{[2-(3-chloro-pyridin-2-yl)-5-methoxy-2H-pyrazole-3-carbonyl]-amino}-1H-indazole-7-carboxylic acid (3-methyl-thietan-3-yl)-amide]
not listed: [1] | [6] | [9]
> 80%: all other assays above

Cc1cc2cn[nH]c2c(C(=O)NC(C)C)c1NC(=O)c1cc(Br)nn1-c1ncccc1Cl [P.65, 6-{[5-bromo-2-(3-chloro-pyridin-2-yl)-2H-pyrazole-3-carbonyl]-amino}-5-methyl-1H-indazole-7-carboxylic acid isopropylamide]
> 80%: [1] | [3] | [8]

Cc1cc2cn[nH]c2c(C(=O)NC2(C3CC3)CC2)c1NC(=O)c1cc(OCC(F)(F)F)nn1-c1ncccc1Cl [P.70, 6-{[2-(3-chloro-pyridin-2-yl)-5-(2,2,2-trifluoro-ethoxy)-2H-pyrazole-3-carbonyl]-amino}-5-methyl-1H-indazole-7-carboxylic acid bicyclopropyl-1-ylamide]
not listed: [9]
> 80%: all other assays above

Cc1cc2cn[nH]c2c(C(=O)NC2(C3CC3)CC2)c1NC(=O)c1cc(Br)nn1-c1ncccc1Cl [P.71, 6-{[5-bromo-2-(3-chloro-pyridin-2-yl)-2H-pyrazole-3-carbonyl]-amino}-5-methyl-1H-indazole-7-carboxylic acid bicyclopropyl-1-ylamide]
> 80%: [1] | [2] | [3] | [8]
